# Test results reported in BindingDB's records for patent WO2025051920 (Sanofi-Aventis Deutschland, 2025).
# Target: Interleukin-23 subunit alpha/receptor (UniProt Q5VWK5)
# Experiment: ELISA assay for specific human IL-23R inhibitors
# Protocol: A 384-well plate was coated with 50 µl/well of human IL-23 at a final concentration of […] and incubated overnight at 4°C. The wells were washed 3 times with […] wash buffer and blocked with […] blocking buffer for 60 minutes at room temperature and washed again. 20 µl of serially diluted test peptides was added to each well and subsequently 20 µl of recombinant human IL-23R-Fc chimera at final concentration of […]. The plate was incubated for 60 minutes at room temperature. After the wells were washed, bound IL-23R-Fc was detected with goat anti-hu- IgG 1 -HRP antibody. Signals were visualized with QuantaBlu Fluorogenic Peroxidase Substrate.
# Interleukin-23 subunit alpha/receptor, sequence (Q9NPF7 whole entry): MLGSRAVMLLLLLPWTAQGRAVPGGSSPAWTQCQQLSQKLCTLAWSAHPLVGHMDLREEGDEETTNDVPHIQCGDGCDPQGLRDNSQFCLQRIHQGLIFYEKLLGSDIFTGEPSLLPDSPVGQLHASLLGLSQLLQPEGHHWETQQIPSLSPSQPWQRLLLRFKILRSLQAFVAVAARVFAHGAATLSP
# Interleukin-23 subunit alpha/receptor, sequence (Q5VWK5 whole entry): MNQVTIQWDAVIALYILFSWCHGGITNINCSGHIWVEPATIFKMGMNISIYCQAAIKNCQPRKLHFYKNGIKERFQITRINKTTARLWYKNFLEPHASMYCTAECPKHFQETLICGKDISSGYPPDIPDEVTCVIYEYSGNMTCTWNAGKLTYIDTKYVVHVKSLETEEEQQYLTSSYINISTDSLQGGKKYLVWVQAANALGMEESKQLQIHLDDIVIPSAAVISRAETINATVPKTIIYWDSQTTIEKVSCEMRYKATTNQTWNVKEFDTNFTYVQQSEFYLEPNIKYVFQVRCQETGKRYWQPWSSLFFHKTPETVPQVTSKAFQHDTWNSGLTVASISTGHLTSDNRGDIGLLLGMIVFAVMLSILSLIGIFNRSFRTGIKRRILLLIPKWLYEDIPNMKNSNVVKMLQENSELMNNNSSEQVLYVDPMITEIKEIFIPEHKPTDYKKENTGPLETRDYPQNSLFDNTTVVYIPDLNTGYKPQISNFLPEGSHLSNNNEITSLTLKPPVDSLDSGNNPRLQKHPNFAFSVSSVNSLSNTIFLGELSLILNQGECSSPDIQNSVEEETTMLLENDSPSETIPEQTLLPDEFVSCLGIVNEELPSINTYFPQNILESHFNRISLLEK
row,IC50 [nM],SMILES
1,0.63,"COc1ccc(C[C@@H]2NC(=O)[C@H](CC(C)C)NC(=O)[C@H](CCC(N)=O)NC(=O)[C@H](Cc3c[nH]c4ccccc34)NC(=O)[C@H]([C@@H](C)O)NC(=O)[C@H](CC(N)=O)NC(=O)[C@H](NC(C)=O)CCCCNC(=O)C[C@@H](C(=O)N[C@@H](CC(N)=O)C(=O)N[C@@H](CC(N)=O)C(=O)O)NC(=O)C(C)(C)NC(=O)[C@H](Cc3ccc4ccccc4c3)NC2=O)cc1 [WO2025051920, Example 1]"
2,0.69,"COc1ccc(C[C@@H]2NC(=O)[C@H](C)NC(=O)[C@H](CCC(N)=O)NC(=O)[C@H](Cc3c[nH]c4ccccc34)NC(=O)[C@H]([C@@H](C)O)NC(=O)[C@H](CC(N)=O)NC(=O)[C@H](NC(C)=O)CCCCNC(=O)C[C@@H](C(=O)N[C@@H](CC(N)=O)C(=O)N[C@@H](CC(N)=O)C(=O)O)NC(=O)C(C)(C)NC(=O)[C@H](Cc3ccc4ccccc4c3)NC2=O)cc1 [WO2025051920, Example 2]"
3,1.59,"CC(=O)N[C@@H]1CCCCNC(=O)C[C@@H](C(=O)N[C@@H](CC(N)=O)C(=O)N[C@@H](CC(N)=O)C(=O)O)NC(=O)C(C)(C)NC(=O)[C@H](Cc2ccc3ccccc3c2)NC(=O)[C@H](Cc2ccc(O)cc2)NC(=O)[C@H](CCCNC(=N)N)NC(=O)[C@H](CCC(N)=O)NC(=O)[C@H](Cc2c[nH]c3ccccc23)NC(=O)[C@H]([C@@H](C)O)NC(=O)[C@H](CC(N)=O)NC1=O [WO2025051920, Example 4]"
4,1.96,"COc1ccc(C[C@@H]2NC(=O)[C@H](CCCNC(=N)N)NC(=O)[C@H](CCC(N)=O)NC(=O)[C@H](Cc3c[nH]c4ccccc34)NC(=O)[C@H]([C@@H](C)O)NC(=O)[C@H](CC(N)=O)NC(=O)[C@@H](NC(C)=O)CC(=O)NCCCC(C(=O)N[C@@H](CC(N)=O)C(=O)N[C@@H](CC(N)=O)C(=O)O)NC(=O)C(C)(C)NC(=O)[C@H](Cc3ccc4ccccc4c3)NC2=O)cc1 (stereo not given in full) [WO2025051920, Example 6]"
5,2.47,"COc1ccc(C[C@@H]2NC(=O)[C@H](CC(C)C)NC(=O)[C@H](CCC(N)=O)NC(=O)[C@H](Cc3c[nH]c4ccccc34)NC(=O)[C@H]([C@@H](C)O)NC(=O)[C@H](CC(N)=O)NC(=O)[C@H](NC(C)=O)CCCCNC(=O)C[C@@H](C(=O)N[C@@H](CC(N)=O)C(=O)N[C@@H](CC(N)=O)C(=O)O)NC(=O)C(C)(C)NC(=O)[C@H](Cc3cccc4ccccc34)NC2=O)cc1 [WO2025051920, Example 7]"
6,2.74,"COc1ccc(C[C@@H]2NC(=O)[C@H](C)NC(=O)[C@H](CCC(N)=O)NC(=O)[C@H](Cc3c[nH]c4ccccc34)NC(=O)[C@H]([C@@H](C)O)NC(=O)[C@H](CC(N)=O)NC(=O)[C@H](NC(C)=O)CCCCNC(=O)C[C@@H](C(=O)N[C@@H](CC(N)=O)C(=O)N[C@@H](CC(N)=O)C(=O)O)NC(=O)C(C)(C)NC(=O)[C@H](Cc3cccc4ccccc34)NC2=O)cc1 [WO2025051920, Example 8]"
7,3.6,"COc1ccc(C[C@@H]2NC(=O)[C@H](CCCNC(=N)N)NC(=O)[C@H](CCC(N)=O)NC(=O)[C@H](Cc3cn(C)c4ccccc34)NC(=O)[C@H]([C@@H](C)O)NC(=O)[C@H](CC(N)=O)NC(=O)[C@H](NC(C)=O)CCCCNC(=O)C[C@@H](C(=O)N[C@@H](CC(N)=O)C(=O)N[C@@H](CC(N)=O)C(=O)O)NC(=O)[C@H](CCCCNC(C)=O)NC(=O)[C@H](Cc3ccc4ccccc4c3)NC2=O)cc1 [WO2025051920, Example 10]"
8,18.9,"COc1ccc(C[C@@H]2NC(=O)[C@H](CCCNC(=N)N)NC(=O)[C@H](CCC(N)=O)NC(=O)[C@H](Cc3c[nH]c4ccccc34)NC(=O)[C@H]([C@@H](C)O)NC(=O)[C@H](CC(N)=O)NC(=O)[C@H](NC(C)=O)CC(=O)NCCCC[C@@H](C(=O)N[C@@H](CC(N)=O)C(=O)N[C@@H](CC(N)=O)C(=O)O)NC(=O)C(C)(C)NC(=O)[C@H](Cc3cccc4ccccc34)NC2=O)cc1 [WO2025051920, Example 11]"
9,14.9,"COc1ccc(C[C@@H]2NC(=O)[C@H](CCCNC(=N)N)NC(=O)[C@H](CCC(N)=O)NC(=O)[C@H](Cc3c[nH]c4ccccc34)NC(=O)[C@H]([C@@H](C)O)NC(=O)[C@H](CC(N)=O)NC(=O)[C@H](NC(C)=O)CC(=O)NCCCC[C@@H](C(=O)N[C@@H](CC(N)=O)C(=O)N[C@@H](CC(N)=O)C(=O)O)NC(=O)C(C)(C)NC(=O)[C@H](Cc3ccc4ccccc4c3)NC2=O)cc1 [WO2025051920, Example 12]"
10,6.24,"COc1ccc(C[C@@H]2NC(=O)[C@H](CCCNC(=N)N)NC(=O)[C@H](CCC(N)=O)NC(=O)[C@H](Cc3c[nH]c4ccccc34)NC(=O)[C@H]([C@@H](C)O)NC(=O)[C@H](CC(N)=O)NC(=O)[C@H](NC(C)=O)CC(=O)NCCC[C@@H](C(=O)N[C@@H](CC(N)=O)C(=O)N[C@@H](CC(N)=O)C(=O)O)NC(=O)C(C)(C)NC(=O)[C@H](Cc3ccc4ccccc4c3)NC2=O)cc1 [WO2025051920, Example 13]"
11,5.42,"CC(=O)N[C@@H]1CCCCNC(=O)C[C@@H](C(=O)N[C@@H](CC(N)=O)C(=O)N[C@@H](CC(N)=O)C(=O)O)NC(=O)C(C)(C)NC(=O)[C@H](Cc2cccc3ccccc23)NC(=O)[C@H](Cc2ccc(O)cc2)NC(=O)[C@H](CCCNC(=N)N)NC(=O)[C@H](CCC(N)=O)NC(=O)[C@H](Cc2c[nH]c3ccccc23)NC(=O)[C@H]([C@@H](C)O)NC(=O)[C@H](CC(N)=O)NC1=O [WO2025051920, Example 14]"
12,7.87,"COc1ccc(C[C@@H]2NC(=O)[C@H](CCCNC(=N)N)NC(=O)[C@H](CCC(N)=O)NC(=O)[C@H](Cc3c[nH]c4ccccc34)NC(=O)[C@H]([C@@H](C)O)NC(=O)[C@H](CC(N)=O)NC(=O)[C@H](NC(C)=O)CCCCNC(=O)C[C@@H](C(=O)N[C@@H](CC(N)=O)C(=O)N[C@@H](CC(N)=O)C(=O)O)NC(=O)[C@H](CCCCNC(C)=O)NC(=O)[C@H](Cc3cccc4ccccc34)NC2=O)cc1 [WO2025051920, Example 17]"
13,11.7,"COc1ccc(C[C@@H]2NC(=O)[C@H](CCCNC(=N)N)NC(=O)[C@H](CCC(N)=O)NC(=O)[C@H](Cc3c[nH]c4ccccc34)NC(=O)[C@H]([C@@H](C)O)NC(=O)[C@H](CC(N)=O)NC(=O)[C@H](NC(C)=O)CCCCNC(=O)C[C@@H](C(=O)N[C@@H](CC(N)=O)C(=O)N[C@@H](CC(N)=O)C(=O)O)NC(=O)[C@H](CCCNC(N)=O)NC(=O)[C@H](Cc3cccc4ccccc34)NC2=O)cc1 [WO2025051920, Example 18]"
14,15.6,"COc1ccc(C[C@@H]2NC(=O)[C@H](CCCNC(=N)N)NC(=O)[C@H](CCC(N)=O)NC(=O)[C@H](Cc3c[nH]c4ccccc34)NC(=O)[C@H]([C@@H](C)O)NC(=O)[C@H](CC(N)=O)NC(=O)[C@H](NC(C)=O)CCCCNC(=O)C[C@@H](C(=O)N[C@@H](CC(N)=O)C(=O)N[C@@H](CC(N)=O)C(=O)O)NC(=O)[C@H](CCC(N)=O)NC(=O)[C@H](Cc3cccc4ccccc34)NC2=O)cc1 [WO2025051920, Example 19]"
15,15.9,"COc1ccc(C[C@@H]2NC(=O)[C@H](C(C)C)NC(=O)[C@H](CCC(N)=O)NC(=O)[C@H](Cc3c[nH]c4ccccc34)NC(=O)[C@H]([C@@H](C)O)NC(=O)[C@H](CC(N)=O)NC(=O)[C@H](NC(C)=O)CCCCNC(=O)C[C@@H](C(=O)N[C@@H](CC(N)=O)C(=O)N[C@@H](CC(N)=O)C(=O)O)NC(=O)C(C)(C)NC(=O)[C@H](Cc3cccc4ccccc34)NC2=O)cc1 [WO2025051920, Example 20]"
